Source: the NIST ThermoML archive (doi:10.1021/je1012857)

Assay: xn = mol fraction of the nth substance listed
Details: 101 kPa, Liquid; for speed of sound: Sing-around technique in a fixed-path interferometer; for viscosity: Capillary tube (Ostwald / Ubbelohde) method

NCCN [ethane-1,2-diamine] + CC(C)O
Details	mass density [kg/m3]	speed of sound [m/s]	viscosity [mPa·s]
293.15 K, x1 = 0.0557	793.696	1187.2	–
293.15 K, x1 = 0.1036	800.705	1213.8	–
293.15 K, x1 = 0.156	807.902	1241.5	–
293.15 K, x1 = 0.2011	813.922	1265.8	–
293.15 K, x1 = 0.2548	820.862	1295.1	–
293.15 K, x1 = 0.3018	826.514	1320.2	–
293.15 K, x1 = 0.3892	836.546	1366.4	–
293.15 K, x1 = 0.5109	849.474	1430.5	–
293.15 K, x1 = 0.605	858.745	1478.9	–
293.15 K, x1 = 0.6988	868.4	1530.6	–
293.15 K, x1 = 0.7969	878.278	1584.3	–
293.15 K, x1 = 0.8369	881.835	1605.3	–
293.15 K, x1 = 0.8931	887.269	1635.6	–
293.15 K, x1 = 0.9409	892.34	1662.9	–
298.15 K, x1 = 0.0557	789.425	1169.4	2.034
298.15 K, x1 = 0.1036	796.388	1195.9	2.017
298.15 K, x1 = 0.156	803.523	1223.4	1.997
298.15 K, x1 = 0.2011	809.506	1247.6	1.978
298.15 K, x1 = 0.2548	816.397	1276.6	1.962
298.15 K, x1 = 0.3018	822.019	1301.6	1.936
298.15 K, x1 = 0.3892	832.023	1347.5	1.886
298.15 K, x1 = 0.5109	844.925	1410.9	1.796
298.15 K, x1 = 0.605	854.173	1458.9	1.725
298.15 K, x1 = 0.6988	863.796	1510	1.637
298.15 K, x1 = 0.7969	873.662	1563.2	1.543
298.15 K, x1 = 0.8369	877.194	1583.7	1.511
298.15 K, x1 = 0.8931	882.613	1613.9	1.469
298.15 K, x1 = 0.9409	887.669	1640.7	1.438
303.15 K, x1 = 0.0557	785.1	1151.7	1.761
303.15 K, x1 = 0.1036	792.016	1178	1.746
303.15 K, x1 = 0.156	799.108	1205.3	1.733
303.15 K, x1 = 0.2011	805.044	1229.4	1.718
303.15 K, x1 = 0.2548	811.904	1258.2	1.698
303.15 K, x1 = 0.3018	817.496	1283	1.675
303.15 K, x1 = 0.3892	827.475	1328.5	1.629
303.15 K, x1 = 0.5109	840.354	1391.5	1.558
303.15 K, x1 = 0.605	849.588	1439	1.496
303.15 K, x1 = 0.6988	859.186	1489.5	1.429
303.15 K, x1 = 0.7969	869.028	1542.1	1.357
303.15 K, x1 = 0.8369	872.546	1562.4	1.331
303.15 K, x1 = 0.8931	877.945	1592.1	1.298
303.15 K, x1 = 0.9409	882.985	1618.7	1.271
308.15 K, x1 = 0.0557	780.72	1134	1.555
308.15 K, x1 = 0.1036	787.599	1160.1	1.543
308.15 K, x1 = 0.156	794.649	1187.3	1.528
308.15 K, x1 = 0.2011	800.552	1211.2	1.516
308.15 K, x1 = 0.2548	807.374	1239.8	1.497
308.15 K, x1 = 0.3018	812.943	1264.5	1.48
308.15 K, x1 = 0.3892	822.898	1309.7	1.44
308.15 K, x1 = 0.5109	835.76	1372.1	1.375
308.15 K, x1 = 0.605	844.983	1419.1	1.322
308.15 K, x1 = 0.6988	854.563	1469.1	1.266
308.15 K, x1 = 0.7969	864.38	1521.1	1.205
308.15 K, x1 = 0.8369	867.885	1541.2	1.183
308.15 K, x1 = 0.8931	873.264	1570.6	1.152
308.15 K, x1 = 0.9409	878.288	1596.8	1.129
313.15 K, x1 = 0.0557	776.266	1116.4	–
313.15 K, x1 = 0.1036	783.114	1142.2	–
313.15 K, x1 = 0.156	790.129	1169.4	–
313.15 K, x1 = 0.2011	796.005	1193.2	–
313.15 K, x1 = 0.2548	802.798	1221.6	–
313.15 K, x1 = 0.3018	808.346	1246.1	–
313.15 K, x1 = 0.3892	818.281	1291.2	–
313.15 K, x1 = 0.5109	831.131	1353.4	–
313.15 K, x1 = 0.605	840.349	1399.4	–
313.15 K, x1 = 0.6988	849.909	1449.1	–
313.15 K, x1 = 0.7969	859.706	1500.5	–
313.15 K, x1 = 0.8369	863.196	1520.3	–
313.15 K, x1 = 0.8931	868.56	1549.4	–
313.15 K, x1 = 0.9409	873.569	1575.4	–
